Paper PMC2782732 (ACS chemical biology, 2008)

Target: dengue E protein (Dengue virus type 2, UniProt P12823)
Assay type: binding
Settings: BOG plus dengue E protein, on-resonance irradiation at −2 ppm

In the case of `CCCCCCCCO[C@@H]1O[C@H](CO)[C@@H](O)[C@H](O)[C@H]1O` [BOG, N-octyl-β-D-glucoside], the “STD NMR signal of ligand with E protein” value was “strong signals”.
